Data published in US20170252289A1, “Hydroponic Tiliacora Triandra and Use Thereof” (Avon Products, Inc., priority 2016, published 2017).

Legend:
HAS2 gene = assay: Hyaluronic acid synthase (HAS) gene expression by qPCR in treated 3D skin tissue, HAS2; assay type: cell-based, Human; settings: treated 3D skin EFT400FT tissue, 18S house keeping gene
Method: (§1) Total RNA was isolated from each treated 3D skin EFT400FT tissue using Trizol reagent (Thermo Fisher Scientific, MA). 1 μg of total RNA was used to generate cDNA using Supercript III first strand synthesis kit (Thermo Fisher Scientific, MA). Reverse transcriptase, Buffer, dNTP, Random primer, and RNase Inhibitor were diluted with the RNA according to the protocol from the manufacturer. 25 ng cDNA was used in 20 μl q-PCR reactions. Briefly, 10 μl of TaqMan Advanced Master Mix (Thermo Fisher Scientific, MA), 4 μl of H2O, 5 μl of cDNA, and 1 μl of either HAS primer (HAS2 Hs00193435_m1 and HAS3 Hs00193436_m1, Applied Biosystems) or 18S (Hs99999901_s1, Applied Biosystems) as a house keeping gene were mixed in a 96 well plate. The condition of qPCR was an incubation step of 95° C. for 20 seconds followed by 40 cycles of 95° C. for 3 seconds and 60° C. for 30 seconds. CT and RQ values were obtained from the software of applied Biosystems 7500 Fast Real Time PCR system. The results are shown below in Table 6, as percentage change of expression of hyaluronan synthase genes over control.

[1] = system: Human 3D skin EFT400FT tissues; assay: Stimulation of HA production in human 3D skin tissues (hyaluronic acid test kit on conditioned medium); assay type: cell-based; settings: 30 μl on apical surface, 8 hours per day for 3 days
Method: Method: Human 3D skin EFT400FT (MatTek, MA, USA) tissues were cultured following manufacture's instruction. Tiliacora triandra extract (extracted from hydroponically grown plant using 20/80 (v/v) water/ethanol) was added directly to the culture medium from a stock solution of 10% (w/w) extract in water in an amount adequate to achieve a final concentration of 0.2% (w/w) in the culture medium. The culture medium (EFT-400-MM) with and without Tiliacora triandra extract was collected 24 hours after dosing and fresh medium with and without Tiliacora triandra extract was added. Conditioned media from 3-day collection were pooled and assayed for the levels of HA.
HA production was measured using hyaluronic acid test kit (Corgenix, Inc. CO, USA). […] Add 100 μl Stopping Solution to stop the enzyme reaction and read the O.D. of each well at 450 nm. The amount of HA in the conditioned medium was calculated from this standard curve. […]
The same procedure of Example 4 was repeated using the skincare active glycolic acid, alone or in combination with hydroponic Tiliacora triandra extract, to investigate possible synergies between hydroponic Tiliacora triandra extract and glycolic acid. […] Glycolic acid was formulated into the base formula provided below in Table 3 in an amount calculated to provide a 0.5% (w/w) concentration of glycolic acid in the emulsion. […]

HAS3 gene = assay: Hyaluronic acid synthase (HAS) gene expression by qPCR in treated 3D skin tissue, HAS3; assay type: cell-based, Human; settings: treated 3D skin EFT400FT tissue, 18S house keeping gene
Method: as §1

Structure (SMILES) | HAS2 gene % change of expression over control (HAS2 gene) | % change in HA level over the control ([1]; Example 5, 0.5% (w/w) glycolic acid emulsion) [%] | HAS3 gene % change of expression over control (HAS3 gene) [%] | % change in HA level over the control ([1]; Example 6, 5% (w/w) niacinamide emulsion) [%]
O=C(O)CO [Glycolic acid, glycolic acid] | No effect | 25.21 | 101 | 
NC(=O)c1cccnc1 [Niacinamide, niacinamide] | No effect |  | 106 | 119.54
